Patent US6274715A, “Tricyclic erythromycin derivatives” (priority 1997, dated 2001)
Converted amounts (≈) assume the structure as drawn.

How the values were obtained:
Format in all cases: cell-based
[1] = system: STAPHYLOCOCCUS AUREUS ATCC 6538P; assay: In vitro antibacterial activity, MIC, BHI agar dilution; conditions: S. aureus ATCC 6538P, 35-37° C., 20 to 24 hours, unit assumed
[2] = system: STAPHYLOCOCCUS AUREUS A-5278; assay: as above; conditions: S. aureus A-5278, unit assumed
[3] = system: STAPHYLOCOCCUS AUREUS CMX 642A; assay: as above; conditions: S. aureus CMX 642A, unit assumed
[4] = system: STAPHYLOCOCCUS AUREUS NCTC10649M; assay: as above; conditions: S. aureus NCTC10649M, unit assumed
[5] = system: STAPHYLOCOCCUS AUREUS CMX 553; assay: as above; conditions: S. aureus CMX 553, unit assumed
[6] = system: STAPHYLOCOCCUS AUREUS 1775; assay: as above; conditions: S. aureus 1775, unit assumed
[7] = system: STAPHYLOCOCCUS EPIDERMIDIS 3519; conditions: S. epidermidis 3519; BHI agar; unit assumed
[8] = system: EN[…] ATCC 8043; assay: In vitro antibacterial activity, MIC, BHI agar dilution; conditions: E. faecium ATCC 8043, unit assumed
Method in brief: (§1)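 BHI agar dilution: twelve plates with successive compound dilutions, inoculated by replicator with 1:100 culture dilutions (1:10 for slow growers such as Micrococcus and Streptococcus), 20 to 24 hours at 35-37° C. MIC was the lowest concentration giving no growth, slight haze or sparse isolated colonies versus drug-free control; erythromycin A as class reference.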

[9] = system: M[…] ATCC 4698; assay: as above; conditions: M. luteus ATCC 4698, unit assumed
Method in brief: as §1

[10] = system: M[…] ATCC 9341; assay: as above; conditions: M. luteus ATCC 9341, unit assumed
Method in brief: as §1

[11] = system: STR[…] 508; assay: as above; conditions: S. agalactiae CMX 508, unit assumed
Method in brief: as §1

[12] = system: STREPTOCOCCUS BOVIS A-5169; assay: as above; conditions: S. bovis A-5169, unit assumed
[13] = system: STREPTOCOCCUS PYOGENES EES61; assay: as above; conditions: S. pyogenes EES61, unit assumed
[14] = system: STREPTOCOCCUS PYOGENES 930; assay: as above; conditions: S. pyogenes 930, unit assumed
[15] = system: STREPTOCOCCUS PYOGENES PIU 2548; assay: as above; conditions: S. pyogenes PIU 2548, unit assumed
[16] = system: ESCHERICHIA COLI JUHL; conditions: E. coli JUHL; BHI agar; unit assumed
[17] = system: ESCHERICHIA COLI SS; assay: In vitro antibacterial activity, MIC, BHI agar dilution; conditions: E. coli SS, unit assumed
[18] = system: ESCHERICHIA COLI H560; assay: as above; conditions: E. coli H560, unit assumed
[19] = system: ESCHERICHIA COLI KNK 437; conditions: E. coli KNK 437; BHI agar; unit assumed
[20] = system: ENTEROBACTER AEROGENES ATCC 13048; assay: In vitro antibacterial activity, MIC, BHI agar dilution; conditions: E. aerogenes ATCC 13048, unit assumed
[21] = system: PROVIDENCIA STUARTII CMX 640; conditions: P. stuartii CMX 640; BHI agar; unit assumed
[22] = system: PSEUDOMONAS AERUGINOSA BMH10; assay: In vitro antibacterial activity, MIC, BHI agar dilution; conditions: P. aeruginosa BMH10, unit assumed
[23] = system: PSEUDOMONAS AERUGINOSA 5007; assay: as above; conditions: P. aeruginosa 5007, unit assumed
[24] = system: PSEUDOMONAS AERUGINOSA K799/WT; assay: as above; conditions: P. aeruginosa K799/WT, unit assumed
[25] = system: PSEUDOMONAS AERUGINOSA K799/61; assay: as above; conditions: P. aeruginosa K799/61, unit assumed
[26] = system: PSEUDOMONAS CEPACIA 296I; assay: as above; conditions: P. cepacia 296I, unit assumed
[27] = system: ACINETOBACTER CALCOACETICUS CMX 669; assay: as above; conditions: A. calcoaceticus CMX 669, unit assumed
[28] = system: PSEUDOMONAS AERUGINOSA DPHD-5263; assay: as above; conditions: P. aeruginosa DPHD-5263, unit assumed
[29] = system: PSEUDOMONAS AERUGINOSA DPHD-2862; assay: as above; conditions: P. aeruginosa DPHD-2862, unit assumed
[30] = system: CANDIDA ALBICANS CCH 442; assay: as above; conditions: C. albicans CCH 442, unit assumed
[31] = system: MYCOBACTERIUM SMEGMATIS ATCC 114; assay: as above; conditions: M. smegmatis ATCC 114, unit assumed
[32] = system: ESCHERICHIA COLI DC-2; assay: as above; conditions: E. coli DC-2, unit assumed
[33] = system: KLEBSIELLA PNEUMONIAE ATCC 8045; assay: as above; conditions: K. pneumoniae ATCC 8045, unit assumed

| Structure (SMILES) | MIC [1] [µg/mL] | MIC [2] [µg/mL] | MIC [3] [µg/mL] | MIC [4] [µg/mL] | MIC [6] [µg/mL] | MIC [7] [µg/mL] | MIC [10] [µg/mL] | MIC [12] [µg/mL] | MIC [14] [µg/mL] | MIC [15] [µg/mL] | MIC [16] [µg/mL] | MIC [18] [µg/mL] | MIC [20] [µg/mL] | MIC [21] [µg/mL] | MIC [22] [µg/mL] | MIC [23] [µg/mL] | MIC [26] [µg/mL] | MIC [27] [µg/mL] | MIC [28] [µg/mL] | MIC [29] [µg/mL] | other results |
| --- | --- | --- | --- | --- | --- | --- | --- | --- | --- | --- | --- | --- | --- | --- | --- | --- | --- | --- | --- | --- | --- |
| CC[C@H]1OC(=O)[C@H](C)C(=O)[C@H](C)[C@@H](O[C@@H]2O[C@H](C)C[C@H](N(C)C)[C@H]2O)[C@](C)(OC)C[C@@H](C)C2=NC[C@H](Cc3ccccc3)N3C(=O)O[C@@]1(C)[C@H]3[C@H]2C [Example 5] | 0.2 (≈ 0.275 µM) | > 100 | 0.2 (≈ 0.275 µM) | 0.2 (≈ 0.275 µM) | > 100 | 0.2 (≈ 0.275 µM) | 0.05 (≈ 0.0687 µM) | 0.01 (≈ 0.0137 µM) | > 100 | 0.39 (≈ 0.536 µM) | 12.5 (≈ 17.2 µM) | 3.1 (≈ 4.26 µM) | 50 (≈ 68.7 µM) | > 100 | 50 (≈ 68.7 µM) | > 100 | 25 (≈ 34.3 µM) | 12.5 (≈ 17.2 µM) | > 100 | > 100 | MIC [5]: 0.2 µg/mL (≈ 0.275 µM); MIC [8]: 0.05 µg/mL (≈ 0.0687 µM); MIC [9]: 0.2 µg/mL (≈ 0.275 µM); MIC [11]: 0.02 µg/mL (≈ 0.0275 µM); MIC [13]: 0.02 µg/mL (≈ 0.0275 µM); MIC [17]: 0.39 µg/mL (≈ 0.536 µM); MIC [19]: 6.2 µg/mL (≈ 8.52 µM); MIC [24]: 50 µg/mL (≈ 68.7 µM); MIC [25]: 0.78 µg/mL (≈ 1.07 µM); MIC [30]: > 100 µg/mL; MIC [31]: 0.2 µg/mL (≈ 0.275 µM) |
| CC[C@H]1OC(=O)[C@H](C)C(=O)[C@H](C)[C@@H](O[C@@H]2O[C@H](C)C[C@H](N(C)C)[C@H]2O)[C@](C)(OC)C[C@@H](C)C2=N[C@H](C)[C@H](C)N3C(=O)O[C@@]1(C)[C@H]3[C@H]2C [Example 10] | 0.39 (≈ 0.586 µM) | > 100 | 0.39 (≈ 0.586 µM) | 0.39 (≈ 0.586 µM) | > 100 | 0.39 (≈ 0.586 µM) | 0.1 (≈ 0.15 µM) | 0.05 (≈ 0.0751 µM) | > 100 | 0.39 (≈ 0.586 µM) | 25 (≈ 37.5 µM) | 25 (≈ 37.5 µM) | 50 (≈ 75.1 µM) | > 100 | > 100 | > 100 | 100 (≈ 150 µM) | 25 (≈ 37.5 µM) | > 100 | > 100 | MIC [5]: 0.39 µg/mL (≈ 0.586 µM); MIC [9]: 0.2 µg/mL (≈ 0.3 µM); MIC [17]: 0.2 µg/mL (≈ 0.3 µM); MIC [32]: 25 µg/mL (≈ 37.5 µM); MIC [30]: > 100 µg/mL; MIC [31]: 6.2 µg/mL (≈ 9.31 µM) |
| CC[C@H]1OC(=O)[C@H](C)C(=O)[C@H](C)[C@@H](O[C@@H]2O[C@H](C)C[C@H](N(C)C)[C@H]2O)[C@](C)(OC)C[C@@H](C)C2=NC[C@@H](CCCc3ccccc3)N3C(=O)O[C@@]1(C)[C@H]3[C@H]2C [Example 36] | 0.2 (≈ 0.265 µM) | > 100 | 0.2 (≈ 0.265 µM) | 0.2 (≈ 0.265 µM) | > 100 | 0.2 (≈ 0.265 µM) | 0.05 (≈ 0.0661 µM) | 0.01 (≈ 0.0132 µM) | 50 (≈ 66.1 µM) | 0.39 (≈ 0.516 µM) | 50 (≈ 66.1 µM) | 25 (≈ 33.1 µM) | 25 (≈ 33.1 µM) | 100 (≈ 132 µM) | 50 (≈ 66.1 µM) | 100 (≈ 132 µM) | 50 (≈ 66.1 µM) | 50 (≈ 66.1 µM) | 50 (≈ 66.1 µM) | 50 (≈ 66.1 µM) | MIC [8]: 0.2 µg/mL (≈ 0.265 µM); MIC [11]: 0.05 µg/mL (≈ 0.0661 µM); MIC [19]: 12.5 µg/mL (≈ 16.5 µM); MIC [33]: 50 µg/mL (≈ 66.1 µM); MIC [24]: 50 µg/mL (≈ 66.1 µM); MIC [25]: 1.56 µg/mL (≈ 2.06 µM); MIC [30]: 100 µg/mL (≈ 132 µM); MIC [31]: 0.39 µg/mL (≈ 0.516 µM) |
